In patent publication US12116594B2, “Methods for differentiating cells” (BOND UNIVERSITY LTD, priority 2015, dated 2024):
Entries after “also recorded” stand apart in the source; their conditions may differ.

System: Mell hESC
Assay: Differentiation assay for small molecule differentiation of hESC to hESC-RPEC; ANEB outgrowths scored for % putative RPE morphology at day 14
Type: cell-based, human
Excerpt: FIG. 31 Establishment of differentiation conditions for hESC-RPEC differentiation using small molecules. (A): Differentiation assay for small molecule differentiation of Mell hESC to hESC-RPEC. […] (B): Optimal ANEB size determined between 1000-1500 cells/body. (C): Optimal window for both seeding ANEBs and switching to RDM is day 6. […] For each experiment, ANEB outgrowths were scored for % putative RPE morphology at day 14. Differentiation is represented as heat map scores (0=0%, 1=5-10%, 2=10-15%, 3=15-25%, 5=25-40%, 6=40-55%, 7=55-70%, 8=80+%).
HESC cultures were prepared for differentiation by supplementing mTeSR™1 with 10 uM Y-27632 (Rock inhibitor) (Sigma) for at least one hour prior to single cell dissociation with TrypLE™ Express (Gibco), counted and replated onto plates pre-coated with reduced growth factor Matrigel™ (RGFMG) (Corning) at high density (150,000 cells/cm2) in mTeSR™1 medium, supplemented with 10 uM Y-27632 and cultured overnight. The following day, cultures were refed fresh mTeSR™1 medium, without Rock inhibitor cultured for another 18-48 hours, or until cell cultures were nearly confluent (FIG. 2). Subsequently, cells were cultured in Primary Differentiation Medium (PDM) (containing 100 nM LDN193189, 10 uM SB431542, 5 uM CKI-7, and supplemented with 10 mM Nicotinamide) for 45 hours, before being further supplemented with 10 uM Rock inhibitor for an hour (FIG. 3 A). Differentiating cultures were single cell dissociated using TryPLE™ Express, re-suspended in PDM supplemented with 10 mM Nicotinamide and 10 uM Rock inhibitor, and formed into 3D cell aggregates of approximately 1500 cells/aggregate, using the AggreWellP400 (StemCell Technologies) (FIG. 3B), and cultured overnight. After 12-18 hours, the cell aggregates. The cell aggregates were cultured in suspension in Corning® Costar® Ultra-Low attachment 6-well plates (Corning) in primary differentiation medium (with 10 mM Nicotinamide), until day 4 or day 6, to differentiate as generate 3D aggregates of hESC-derived eyefield cells (ANEBs) to eyefield progenitor cells (FIG. 4A). At day 6, ANEBs were re-seeded onto RGFMG coated plates in RPEC Differentiation Medium (RDM) (containing 250 nM IDE-2 and 3 uM CHIR99021). ANEBs attached to the plate and the outgrowths were assessed for the appearance of immature RPE-like morphology (FIG. 8). ANEB outgrowths were cultured in RDM until day 14. Some putative hESC-RPEC cultures were maintained in an undisrupted form on the plates, while others were single cell dissociated and re-plated onto RGFMG at 150,000 cells/cm2 and cultured in Base Medium 2 (BM2), or RPEC Culture Medium (RCM), both supplemented with 10 uM Y-27632 until medium change the following day. hESC-RPEC cultures that are not dissociated may be maintained in BM2, without further supplementation, or in RMM, to generate mature hESC-RPECs within 21-28 days of the differentiation process (FIG. 9).
The hESC methods of the invention relating to the differentiation of human SCs towards the eyefield progenitor cells, that are Rax+ on day 4 and day 6 (FIG. 6), which has been confirmed by qRT-PCR expression of Rax, LHX2, Pax6(−5a) (FIG. 7). […] FIG. 31 A is a summary of experimental conditions designed to test the ability of each molecule to contribute to efficient RPEC differentiation within a 14-day period. Primary differentiation was from day 0-day 6, followed by secondary differentiation, or RPE differentiation, from day 6 to day 14. Briefly, hESC differentiation to RPE in the absence of LDN is low. […] The role of CKI-7 on differentiation efficiency was tested in combination with a variety of combinations to determine the optimal signalling requirements for differentiation. The small molecule IDE-2 was tested for its ability to functionally replace Activin A in a context for which it had not previously been tested. […] Although the effect of NIC on hESC-RPEC differentiation was positive during differentiation towards to the eyefield, but negative after. […]

[1] = molecule used in secondary (RPE) differentiation conditions, day 6 to day 14
[2] = molecule used in primary differentiation conditions, day 0-day 6

Cc1c[nH]c(-c2cnc(NCCNc3ccc(C#N)cn3)nc2-c2ccc(Cl)cc2Cl)n1 [CHIR, CHIR99021]
hESC-RPEC differentiation (% putative RPE morphology at day 14) [1]: essential for highly efficient RPEC differentiation

NCCNS(=O)(=O)c1ccc(Cl)c2ccncc12 [CKI-7]
hESC-RPEC differentiation (% putative RPE morphology at day 14) [2]: greatly enhanced; also recorded: further enhanced

O=C(O)CCCCCC(=O)NN=C1CCCC1 [IDE-2]
hESC-RPEC differentiation by day 14 (combined use of IDE-2 with the GSK3b inhibitor, secondary differentiation day 6 to day 14): highest degree of hESC-RPEC differentiation | hESC-RPEC differentiation (% putative RPE morphology at day 14) [1]: enhances RPEC differentiation

c1ccc2c(-c3cnn4cc(-c5ccc(N6CCNCC6)cc5)cnc34)ccnc2c1 [LDN, LDN193189]
hESC-RPEC differentiation (% putative RPE morphology at day 14) [2]: improved differentiation

NC(=O)c1cccnc1 [NIC, nicotinamide]
hESC-RPEC differentiation (% putative RPE morphology at day 14) [2]: positive | hESC-RPEC differentiation (% putative RPE morphology at day 14) [1]: suppresses RPEC differentiation; also recorded: negative
